The record followed here is publication PMC13278354, “The competitive interplay of 12‐oxophytodienoic acid (OPDA), protein thiols, and glutathione” (The Febs Journal, 2026).

For assay [1], the target named is T1, TRX-f1 (Arabidopsis thaliana, UniProt Q9XFH8).
T1 construct: gene At3g02730; recombinant His-tagged, without transit peptide, E. coli NiCo21(DE3)
T1 sequence (Q9XFH8 58-178): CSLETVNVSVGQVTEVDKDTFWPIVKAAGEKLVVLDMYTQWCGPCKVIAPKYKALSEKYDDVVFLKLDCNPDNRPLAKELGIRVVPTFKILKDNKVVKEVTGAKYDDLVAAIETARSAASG
In words: intrinsic tryptophan fluorescence quenching. Conditions: covalent; 15 uM reduced protein, 150 uM OPDA, 3 h, RT, 50 mM KPi pH 7.2. The assay is classed as binding.

Assay [2] deals with T2, TRX-m4 (Arabidopsis thaliana, UniProt Q9SEU6).
T2 construct: gene At3g15360; recombinant His-tagged, without transit peptide, E. coli NiCo21(DE3)
T2 sequence (Q9SEU6 83-193): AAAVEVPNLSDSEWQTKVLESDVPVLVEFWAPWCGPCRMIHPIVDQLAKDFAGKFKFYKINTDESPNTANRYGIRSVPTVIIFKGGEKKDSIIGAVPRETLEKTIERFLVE
As to the kind of experiment: intrinsic tryptophan fluorescence quenching. The assay is classed as binding. Conditions: covalent; 15 uM reduced protein, 150 uM OPDA, 3 h, RT, 50 mM KPi pH 7.2.

Assay [3] addresses T2, TRX-m4. As to the kind of experiment: insulin reduction assay (turbidity, A650). Type of assay: biochemical. Conditions: covalent; 20 uM TRX pre-incubated with 80 uM OPDA, RT; assay pH 7.2, 1 mM DTT.
In a further assay the target is T3, TRX-h3 (Arabidopsis thaliana, UniProt Q42403).
T3 construct: gene TRX3; recombinant His-tagged, E. coli NiCo21(DE3); cytosolic, no transit peptide
T3 sequence (Q42403 1-118): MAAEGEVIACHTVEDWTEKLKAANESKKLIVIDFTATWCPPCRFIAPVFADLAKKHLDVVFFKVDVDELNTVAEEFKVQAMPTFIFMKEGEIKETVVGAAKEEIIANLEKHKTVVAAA
In words: insulin reduction assay (turbidity, A650). The assay is classed as biochemical. Conditions: covalent; 20 uM TRX pre-incubated with 80 uM OPDA, RT; assay pH 7.2, 1 mM DTT.

Assay [4] concerns the target T1, TRX-f1. As to the kind of experiment: insulin reduction assay (turbidity, A650). The assay is classed as biochemical. Conditions: covalent; 20 uM TRX pre-incubated with 80 uM OPDA, RT; assay pH 7.2, 1 mM DTT.

One may read the residual activity as what remains of the control signal, in per cent.

Turning to `CC/C=C\C[C@@H]1C(=O)C=C[C@@H]1CCCCCCCC(=O)O` [OPDA], the “change of maximal fluorescence intensity” value is reported as “–14.5 relative units” on TRX-f1 [1] and “–16.3 relative units” at TRX-m4 [2]. Also, the residual activity at TRX-m4 [3] stood at 71%; on TRX-h3, 47%; at TRX-f1 [4] it was 67%.
